Reference: patent US8785445B2 (Array BioPharma Inc., priority 2008, dated 2014)
Like-named read-outs stand apart in the source and are kept apart here.

Molecular target: T1, human DP2 (Homo sapiens, UniProt Q9Y5Y4)
T1 construct: expressed in transfected cells; membranes prepared
T1 sequence (Q9Y5Y4 1-395): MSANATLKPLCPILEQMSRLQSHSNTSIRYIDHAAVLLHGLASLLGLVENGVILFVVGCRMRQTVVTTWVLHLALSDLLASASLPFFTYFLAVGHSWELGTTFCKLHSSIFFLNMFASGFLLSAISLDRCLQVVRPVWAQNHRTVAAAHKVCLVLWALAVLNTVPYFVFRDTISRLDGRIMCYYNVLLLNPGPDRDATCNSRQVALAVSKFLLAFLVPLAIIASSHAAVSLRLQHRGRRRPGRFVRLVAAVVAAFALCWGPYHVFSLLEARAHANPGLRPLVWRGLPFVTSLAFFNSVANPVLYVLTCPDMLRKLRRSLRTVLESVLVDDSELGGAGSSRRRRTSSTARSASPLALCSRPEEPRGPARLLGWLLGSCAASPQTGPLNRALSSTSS
Assay: DP-2 binding inhibition assay (3H-PGD2, membranes of DP2-expressing K562 cells)
Outline: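 Membranes from K562 clones stably expressing human DP2 were incubated 60 min at room temperature with 3H-PGD2 and compound, with 0.1% BSA, 1% HSA or 4% HSA, then filtered and counted.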

[1] = 0.1% BSA, read-out: EC50 (nM) 0.1% BSA
[2] = 4% HSA, read-out: EC50 (nM) 4% HSA
[3] = 1% HSA, read-out: EC50 (nM) 1% HSA

| SMILES | EC50 [1] | EC50 [2] | EC50 [3] |
| --- | --- | --- | --- |
| Cc1csc(NC(=O)c2ccc(Oc3cc4c(cc3C#N)C(C(=O)O)CCO4)cc2)n1 (stereo not shown) [Example 177, 6-cyano-7-(4-(4-methylthiazol-2-ylcarbamoyl)phenoxy)chroman-4-carboxylic acid] | 68.2 nM |  |  |
| Cn1nc(C(C)(C)C)cc1NC(=O)c1ccc(Oc2cc3c(cc2Cl)C(C(=O)O)CCO3)cc1 (stereo not shown) [Example 178, 7-(4-(3-tert-butyl-1-methyl-1H-pyrazol-5-ylcarbamoyl)phenoxy)-6-chlorochroman-4-carboxylic acid] |  | 951 nM |  |
| N#Cc1cc2c(cc1Oc1ccc(C(=O)Nc3ccc4ncoc4c3)cc1)OCCC2C(=O)O (stereo not shown) [Example 188, 7-(4-(benzo[d]oxazol-6-ylcarbamoyl)phenoxy)-6-cyanochroman-4-carboxylic acid] | 301 nM |  |  |
| Cc1nc2ccc(NC(=O)c3ccc(Oc4cc5c(cc4C#N)C(C(=O)O)CCO5)cc3)cc2s1 (stereo not shown) [Example 189, 6-cyano-7-(4-(2-methylbenzo[d]thiazol-6-ylcarbamoyl)phenoxy) chroman-4-carboxylic acid] | 43.3 nM |  |  |
| Cc1nsc2ccc(NC(=O)c3ccc(Oc4cc5c(cc4C#N)C(C(=O)O)CCO5)cc3)cc12 (stereo not shown) [Example 190, 6-cyano-7-(4-(3-methylbenzo[d]isothiazol-5-ylcarbamoyl)phenoxy) chroman-4-carboxylic acid] | 49.3 nM |  |  |
| N#Cc1cc2c(cc1Oc1ccc(C(=O)Nc3ccc4nc(C(F)(F)F)[nH]c4c3)cc1)OCCC2C(=O)O (stereo not shown) [Example 191, 6-cyano-7-(4-(2-(trifluoromethyl)-1H-benzo[d]imidazol-6-ylcarbamoyl)phenoxy) chroman-4-carboxylic acid] | 41.5 nM |  | 137 nM |
| N#Cc1cc2c(cc1Oc1ccc(C(=O)Nc3ccc4[nH]ncc4c3)cc1)OCCC2C(=O)O (stereo not shown) [Example 192, 7-(4-(1H-indazol-5-ylcarbamoyl)phenoxy)-6-cyanochroman-4-carboxylic acid] | 492 nM |  |  |
| N#Cc1cc2c(cc1Oc1ccc(C(=O)Nc3ccc4cn[nH]c4c3)cc1)OCCC2C(=O)O (stereo not shown) [Example 193, 7-(4-(1H-indazol-6-ylcarbamoyl)phenoxy)-6-cyanochroman-4-carboxylic acid] | 36.7 nM |  |  |
| N#Cc1cc2c(cc1Oc1ccc(C(=O)Nc3nc4ccc(F)cc4s3)cc1)OCCC2C(=O)O (stereo not shown) [Example 195, 6-cyano-7-(4-(6-fluorobenzo[d]thiazol-2-ylcarbamoyl)phenoxy) chroman-4-carboxylic acid] | 12.9 nM |  | 194 nM |
| N#Cc1cc2c(cc1Oc1ccc(C(=O)Nc3nc4ccc(Cl)cc4s3)cc1)OCCC2C(=O)O (stereo not shown) [Example 196] | 11 nM |  | 352 nM |
| Cc1cc2nc(NC(=O)c3ccc(Oc4cc5c(cc4C#N)C(C(=O)O)CCO5)cc3)sc2cc1C (stereo not shown) [Example 200, 6-cyano-7-(4-(5,6-dimethylbenzo[d]thiazol-2-ylcarbamoyl)phenoxy) chroman-4-carboxylic acid] | 7.6 nM |  |  |
| N#Cc1cc2c(cc1Oc1ccc(C(=O)Nc3nc4ccc(C(F)(F)F)cc4s3)cc1)OCCC2C(=O)O (stereo not shown) [Example 201, 6-cyano-7-(4-(6-(trifluoromethyl)benzo[d]thiazol-2-ylcarbamoyl)phenoxy)chroman-4-carboxylic acid] | 5.1 nM | 355 nM |  |
| N#Cc1cc2c(cc1Oc1ccc(C(=O)Nc3nc4c(F)cc(F)cc4s3)cc1)OCCC2C(=O)O (stereo not shown) [Example 202, 6-cyano-7-(4-(4,6-difluorobenzo[d]thiazol-2-ylcarbamoyl)phenoxy) chroman-4-carboxylic acid] | 24.5 nM |  |  |
| O=C(NC1CCN(c2cccc(C(F)(F)F)n2)CC1)c1ccc(Oc2cc3c(cc2Cl)C(C(=O)O)CCO3)cc1 (stereo not shown) [Example 211] |  | 421 nM |  |

Now from value to molecule:

| EC50 [1] | EC50 [2] | EC50 [3] | SMILES |
| --- | --- | --- | --- |
|  | 247 nM |  | O=C(Nc1ccn(Cc2ccc(Cl)cc2)n1)c1ccc(Oc2cc3c(cc2Cl)C(C(=O)O)CCO3)cc1 (stereo not shown) [Example 179, 6-chloro-7-(4-(1-(4-chlorobenzyl)-1H-pyrazol-3-ylcarbamoyl)phenoxy)chroman-4-carboxylic acid] |
|  | 406 nM |  | O=C(Nc1cc(-c2ccc(Cl)cc2)n[nH]1)c1ccc(Oc2cc3c(cc2Cl)C(C(=O)O)CCO3)cc1 (stereo not shown) [Example 180, 6-Chloro-7-(4-(3-(4-chlorophenyl)-1H-pyrazol-5-ylcarbamoyl)phenoxy)chroman-4-carboxylic acid] |
|  | 313 nM |  | O=C(Nc1cc(-c2ccc(F)cc2)n[nH]1)c1ccc(Oc2cc3c(cc2Cl)C(C(=O)O)CCO3)cc1 (stereo not shown) [Example 181, 6-Chloro-7-(4-(3-(4-fluorophenyl)-1H-pyrazol-5-ylcarbamoyl)phenoxy)chroman-4-carboxylic acid] |
|  | 45.8 nM |  | O=C(Nc1nc2ccc(C(F)(F)F)cc2s1)c1ccc(Oc2cc3c(cc2Cl)C(C(=O)O)CCO3)cc1 (stereo not shown) [Example 183, 6-Chloro-7-(4-(6-(trifluoromethyl)benzo[d]thiazol-2-ylcarbamoyl)phenoxy)chroman-4-carboxylic acid] |
|  | 42.1 nM |  | COc1nc(C2CC2)ccc1CCNC(=O)c1ccc(Oc2cc3c(cc2Cl)C(C(=O)O)CCO3)cc1 (stereo not shown) [Example 184, Sodium 6-Chloro-7-(4-(2-(6-cyclopropyl-2-methoxypyridin-3-yl)ethylcarbamoyl)phenoxy)chroman-4-carboxylate] |
|  | 32.6 nM |  | O=C(NCCc1ccc(C(F)(F)F)nc1C1CC1)c1ccc(Oc2cc3c(cc2Cl)C(C(=O)O)CCO3)cc1 (stereo not shown) [Example 186, Sodium 6-Chloro-7-(4-(2-(2-cyclopropyl-6-(trifluoromethyl)pyridin-3-yl)ethylcarbamoyl)phenoxy)chroman-4-carboxylate] |
|  | 45.2 nM |  | CN(C)c1nc(C2CC2)ccc1CCNC(=O)c1ccc(Oc2cc3c(cc2Cl)C(C(=O)O)CCO3)cc1 (stereo not shown) [Example 187, 6-Chloro-7-(4-(2-(6-cyclopropyl-2-(dimethylamino)pyridin-3-yl)ethylcarbamoyl)phenoxy)chroman-4-carboxylic acid] |
| 10.7 nM |  | 1240 nM | N#Cc1cc2c(cc1Oc1ccc(C(=O)Nc3nc4ccccc4s3)cc1)OCCC2C(=O)O (stereo not shown) [Example 194, 7-(4-(benzo[d]thiazol-2-ylcarbamoyl)phenoxy)-6-cyanochroman-4-carboxylic acid] |
| 9.3 nM |  | 146 nM | COc1ccc2nc(NC(=O)c3ccc(Oc4cc5c(cc4C#N)C(C(=O)O)CCO5)cc3)sc2c1 (stereo not shown) [Example 197, 6-cyano-7-(4-(6-methoxybenzo[d]thiazol-2-ylcarbamoyl)phenoxy) chroman-4-carboxylic acid] |
| 1240 nM |  |  | Cc1noc(C)c1CCNC(=O)c1ccc(Oc2cc3c(cc2C#N)C(C(=O)O)CCO3)cc1 (stereo not shown) [Example 198, 6-cyano-7-(4-(2-(3,5-dimethylisoxazol-4-yl)ethylcarbamoyl)phenoxy)chroman-4-carboxylic acid] |
| 10.8 nM |  |  | N#Cc1cc2c(cc1Oc1ccc(C(=O)Nc3nc4c(Cl)cccc4s3)cc1)OCCC2C(=O)O (stereo not shown) [Example 199] |
| 69 nM |  |  | N#Cc1cc2c(cc1Oc1ccc(C(=O)Nc3nc4ccccc4o3)cc1)OCCC2C(=O)O (stereo not shown) [Example 203, 7-(4-(benzo[d]oxazol-2-ylcarbamoyl)phenoxy)-6-cyanochroman-4-carboxylic acid] |
|  | 3440 nM |  | N#Cc1cc2c(cc1Oc1ccc(C(=O)Nc3nnc(-c4ccc(Cl)cc4)s3)cc1)OCCC2C(=O)O (stereo not shown) [Example 204, 7-(4-(5-(4-chlorophenyl)-1,3,4-thiadiazol-2-ylcarbamoyl)phenoxy)-6-cyanochroman-4-carboxylic acid] |
|  | 96.2 nM |  | Cc1ccc(-c2csc(NC(=O)c3ccc(Oc4cc5c(cc4C#N)C(C(=O)O)CCO5)cc3)n2)cc1 (stereo not shown) [Example 205, 6-cyano-7-(4-(4-p-tolylthiazol-2-ylcarbamoyl)phenoxy) chroman-4-carboxylic acid] |
|  | 105 nM |  | O=C(Nc1nc2ccc(Cl)cc2s1)c1ccc(Oc2cc3c(cc2Cl)C(C(=O)O)CCO3)cc1 (stereo not shown) [Example 207, 6-chloro-7-(4-(6-chlorobenzo[d]thiazol-2-ylcarbamoyl)phenoxy) chroman-4-carboxylic acid] |
|  | 736 nM |  | O=C(Nc1nc2cc(Cl)ccc2o1)c1ccc(Oc2cc3c(cc2Cl)C(C(=O)O)CCO3)cc1 (stereo not shown) [Example 208, 6-chloro-7-(4-(5-chlorobenzo[d]oxazol-2-ylcarbamoyl)phenoxy) chroman-4-carboxylic acid] |
|  | 207 nM |  | O=C(Nc1ccc(-c2ccc(Cl)cc2)nn1)c1ccc(Oc2cc3c(cc2Cl)C(C(=O)O)CCO3)cc1 (stereo not shown) [Example 209, 6-chloro-7-(4-(6-(4-chlorophenyl)pyridazin-3-ylcarbamoyl)phenoxy) chroman-4-carboxylic acid] |
|  | 3010 nM |  | O=C(NCCc1cccn1-c1ccc(C(F)(F)F)cc1)c1ccc(Oc2cc3c(cc2Cl)C(C(=O)O)CCO3)cc1 (stereo not shown) [Example 212, 6-chloro-7-(4-(2-(1-(4-(trifluoromethyl)phenyl)-1H-pyrrol-2-yl)ethylcarbamoyl)phenoxy) chroman-4-carboxylic acid] |
|  | 188 nM |  | CCOc1ncccc1CCNC(=O)c1ccc(Oc2cc3c(cc2Cl)C(C(=O)O)CCO3)cc1 (stereo not shown) [Example 213, 6-chloro-7-(4-(2-(2-ethoxypyridin-3-yl)ethylcarbamoyl)phenoxy) chroman-4-carboxylic acid] |
|  | 1350 nM |  | COc1ccc(-c2cccc(CCNC(=O)c3ccc(Oc4cc5c(cc4Cl)C(C(=O)O)CCO5)cc3)n2)cc1 (stereo not shown) [Example 214, 6-chloro-7-(4-(2-(6-(4-methoxyphenyl)pyridin-2-yl)ethylcarbamoyl)phenoxy)chroman-4-carboxylic acid] |
